According to ChEMBL document CHEMBL1201862, “PubChem BioAssay data set” (2004):
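Where inhibition never reached the appropriate level, the endpoint shown equals the highest concentration tested. Otherwise, values were interpolated linearly from a five-concentration, 48-hour dose response in 96-well plates. At the GI50, growth is halved.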 Calls of active or inactive are those of the source. Rule as the data show it: active = GI50 up to about 1.1 µM and inactive = higher.

What was measured:
Test in all cases: NCI tumour cell line growth inhibition, 48 h
[1] = system: 786-0
[2] = system: DU-145
[3] = system: HCT-116
[4] = system: HCT-15
[5] = system: Hs-578T
[6] = system: IGROV-1
[7] = system: K562
[8] = system: KM12
[9] = system: LOX IMVI
[10] = system: MCF7
[11] = system: MDA-N
[12] = system: OVCAR-3
[13] = system: PC-3
[14] = system: SNB-75
[15] = system: SR
[16] = system: HL-60
[17] = system: NCI-H460
[18] = system: SF-539
[19] = system: UACC-257

SMILES	GI50 [1]	GI50 [2]	GI50 [3]	GI50 [4]	GI50 [5]	GI50 [6]	GI50 [7]	GI50 [8]	GI50 [9]	GI50 [10]	GI50 [11]	GI50 [12]	GI50 [13]	GI50 [14]	GI50 [15]	GI50 [16]	GI50 [17]	GI50 [18]	GI50 [19]
CSC1=N/C(=C\c2ccc(Cl)cc2)C(=O)N1CN1CCCCC1	42.8 µM (inactive)	89.3 µM (inactive)	37.7 µM (inactive)	25.9 µM	20.7 µM (inactive)	7.38 µM (inactive)	53.7 µM (inactive)	49.5 µM (inactive)	44.7 µM (inactive)	5.33 µM (inactive)	56.8 µM (inactive)	34.2 µM (inactive)	35.3 µM (inactive)	46.2 µM (inactive)	25 µM (inactive)				
Cc1cc2c(cc1-c1cc3c(cc1C)C(C(C)C)=C(O)C(=O)/C3=C\Nc1ccccn1)/C(=C/Nc1ccccn1)C(=O)C(O)=C2C(C)C	52.2 µM (inactive)	> 100 µM (inactive)	64.7 µM (inactive)	33.9 µM	32 µM (inactive)	31.1 µM (inactive)	31.8 µM (inactive)	24.5 µM (inactive)	35.4 µM (inactive)	52.5 µM (inactive)	76.7 µM (inactive)	34.3 µM (inactive)	41.7 µM (inactive)	63.4 µM (inactive)	42.7 µM (inactive)	27.4 µM (inactive)	43.2 µM (inactive)	85.1 µM (inactive)	> 100 µM (inactive)
S=C(NCCc1ccccn1)N/N=C/c1ccccn1	0.0653 µM (active)	1.48 µM (inactive)	< 0.01 µM (active)			< 0.01 µM (active)	< 0.01 µM (active)	0.106 µM (active)	< 0.0373 µM (active)	< 0.01 µM (active)	1.91 µM (inactive)	< 0.01 µM (active)	0.0115 µM (active)	9.35 µM (inactive)	< 0.01 µM (active)	< 0.01 µM (active)	0.501 µM (active)	0.127 µM (active)	< 0.0113 µM (active)
COC(=O)/C=C(\CC(=O)OC)n1nnnc1[C@@H]1C[C@H](COC(c2ccccc2)(c2ccccc2)c2ccccc2)[C@H]2OC(C)(C)O[C@H]21	> 100 µM (inactive)	> 100 µM (inactive)	89.1 µM (inactive)		68.4 µM (inactive)	60.5 µM (inactive)	65.5 µM (inactive)	> 100 µM (inactive)	> 100 µM (inactive)	31.9 µM (inactive)	> 100 µM (inactive)	> 100 µM (inactive)	> 100 µM (inactive)	37.2 µM (inactive)	92 µM (inactive)	> 100 µM (inactive)		> 100 µM (inactive)	> 100 µM (inactive)
C/C(CC(O)(C(F)(F)F)C(F)(F)F)=N\NC(N)=S	> 10 µM (inactive)	> 10 µM (inactive)	> 10 µM (inactive)	> 10 µM	> 10 µM (inactive)	> 10 µM (inactive)	> 10 µM (inactive)	> 10 µM (inactive)	> 10 µM (inactive)	> 10 µM (inactive)	> 10 µM (inactive)	> 10 µM (inactive)	> 10 µM (inactive)	> 10 µM (inactive)	> 10 µM (inactive)	> 10 µM (inactive)	> 10 µM (inactive)	> 10 µM (inactive)	> 10 µM (inactive)
CCCCCCCCCCCCCCCCNC(=O)/C(O)=C/C(=O)c1ccc(C)cc1	> 10 µM (inactive)	> 10 µM (inactive)		> 10 µM	> 10 µM (inactive)	> 10 µM (inactive)	> 10 µM (inactive)	> 10 µM (inactive)	> 10 µM (inactive)	> 10 µM (inactive)	> 10 µM (inactive)	> 10 µM (inactive)	3.32 µM (inactive)	> 10 µM (inactive)	> 10 µM (inactive)	8.05 µM (inactive)	> 10 µM (inactive)	> 10 µM (inactive)	> 10 µM (inactive)
CC(=O)OC(C)(C)/C=C/C(=O)[C@](C)(O)[C@H]1[C@H](O)C[C@@]2(C)[C@@H]3CC=C4[C@@H](C[C@H](O)[C@H](O)C4(C)C)[C@]3(C)C(=O)C[C@]12C	0.24 µM (active)		0.277 µM (active)	0.294 µM		0.925 µM (active)	0.272 µM (active)	0.467 µM (active)	0.303 µM (active)			0.314 µM (active)		0.261 µM (active)	0.224 µM (active)	0.243 µM (active)	1.07 µM (active)	0.303 µM (active)	0.638 µM (active)
O=C(c1cccs1)N1CCc2ccccc2C1	> 100 µM (inactive)	> 100 µM (inactive)	38.2 µM (inactive)	> 100 µM	85.5 µM (inactive)	> 100 µM (inactive)	39.1 µM (inactive)	74.8 µM (inactive)	> 100 µM (inactive)	> 100 µM (inactive)	32.2 µM (inactive)	> 100 µM (inactive)	> 100 µM (inactive)		97.5 µM (inactive)	30.7 µM (inactive)	> 100 µM (inactive)	> 100 µM (inactive)	> 100 µM (inactive)
CC(C)(C)N/N=C(\C(=O)Nc1nnc(S)[nH]1)C1C(=O)Nc2ccccc2[S+]1[O-] (centres undefined)	> 100 µM (inactive)		> 100 µM (inactive)	> 100 µM		> 100 µM (inactive)	> 100 µM (inactive)	> 100 µM (inactive)	> 100 µM (inactive)			> 100 µM (inactive)		> 100 µM (inactive)	> 100 µM (inactive)	> 100 µM (inactive)	> 100 µM (inactive)	> 100 µM (inactive)	> 100 µM (inactive)
ClCCNCCNCCCl.ClCCNCCNCCCl.[O-][Cl+3]([O-])([O-])O	18.8 µM (inactive)		27.5 µM (inactive)	55.8 µM		22.5 µM (inactive)	23.6 µM (inactive)	> 100 µM (inactive)	20 µM (inactive)			17.6 µM (inactive)		19 µM (inactive)	23.1 µM (inactive)	30.3 µM (inactive)	22.3 µM (inactive)	26.2 µM (inactive)	27 µM (inactive)
CCc1cc2c(c3c1CCC3=O)CC1(Cc3ccc(C)cc3C1)C2 (centres undefined)	96.8 µM (inactive)		17.6 µM (inactive)	46.3 µM	19.7 µM (inactive)	42.9 µM (inactive)	30.5 µM (inactive)	71.3 µM (inactive)	50.4 µM (inactive)	32.2 µM (inactive)	38.1 µM (inactive)	37.3 µM (inactive)	23 µM (inactive)			21.7 µM (inactive)		> 100 µM (inactive)	32.2 µM (inactive)
COC(=O)C(c1n[nH]c2ccccc12)C(C(=O)OC)c1n[nH]c2ccccc12 (centres undefined)	44.9 µM (inactive)		41.4 µM (inactive)	> 100 µM		> 100 µM (inactive)	28 µM (inactive)	> 100 µM (inactive)	68.2 µM (inactive)			41.8 µM (inactive)		50.1 µM (inactive)	30.4 µM (inactive)	16 µM (inactive)	58.3 µM (inactive)	17 µM (inactive)	54.7 µM (inactive)
